Measurements reported in US12673052B2, “Combinations for the treatment of cancer” (Exelixis, Inc., priority 2020, dated 2026).
Where two headings read alike, the source gives them in different places.

Columns and labels:
[1] = Toxicokinetics in 28-day repeat-dose toxicity study; type: in vivo, rats; conditions: for half-life: oral, read-out: Half-life (t1/2)
Protocol: In a 28-day repeat-dose toxicity study in rats dosed orally daily with Compound 1 at 1, 3 or 10 mg/kg, Compound 1 exposure (Cmax and AUC0-24) increased with the increase in dose level from 1-10 mg/kg/day. […] Accumulation ratio values ranged from 0.721-1.14 for Cmax and from 0.722-0.891 for AUC0-24. Consistent with the single-dose PK data, exposure in rats at steady-state on Day 28 for low doses appeared to be approximately 20-fold higher than that observed in dogs.

[2] = Repeat-dose toxicity studies (7-day range-finding, definitive 28-day, 14-day recovery); type: in vivo, rats
Protocol: The nonclinical toxicity of Compound 1 was characterized in dose range-finding 7-day and definitive 28-day repeat-dose studies in rats and dogs, and in in vitro bacterial and mammalian genotoxicity bioassays. Compound 1 was also evaluated in definitive neurobehavioral, respiratory and cardiovascular safety pharmacology studies.
Following a 2-week recovery phase, increased physeal thickness and tooth degeneration persisted but were less severe. These findings are consistent with an on-target pharmacologic VEGFR inhibition by Compound 1.
These microscopic lesions were fully reversible following a 14-day recovery period, and were associated with correlative reversible changes in clinical chemistry markers of hepatic function (eg, <2-fold increase in AST and <5-fold increase in ALT at 10 mg/kg/day).

[3] = Liver microsomal stability assay; type: in vitro ADME, monkey; conditions: liver microsomes
Protocol: (§1) In the liver microsomal stability assay, CLint was 0.601 mL/min/g liver in mouse, 0.563 mL/min/g liver in rat, 0.315 mL/min/g liver in dog, 0.734 mL/min/g liver in monkey, and 0.639 mL/min/g liver in human. In the hepatocyte stability assay, Compound 1 CLint was 0.373 mL/min/g liver in mouse, 0.285 mL/min/g liver in rat, 1.08 mL/min/g liver in dog, 0.533 mL/min/g liver in monkey, and 0.317 mL/min/g liver in human.

[4] = In vitro plasma protein binding; type: in vitro ADME, monkey
Protocol: (§2) Plasma PK of Compound 1 was characterized in rats and beagle dogs. Toxicokinetic (TK) evaluations of oral Compound 1 were evaluated in repeat-dose studies in rats and dogs. Plasma protein binding was determined in mouse, rat, dog, monkey, and human plasma in vitro. Biotransformation and metabolite profiling of Compound 1 were investigated in vitro using mouse, rat, dog, monkey, and human liver microsomal fractions and hepatocytes and in vivo in rats and dogs. P-glycoprotein (P-gp) and breast cancer resistance protein (BCRP) transporter interaction studies, in vitro experiments evaluating cytochrome P450 (CYP) induction and inhibition by Compound 1, and CYP and glucuronosyltransferase (UGT) substrate specificity studies of Compound 1 were also performed.
(§3) Compound 1 (10 μM) was 97.2 and 97.5% protein bound in monkey and human plasma, respectively.

[5] = Toxicokinetics in 28-day repeat-dose toxicity study; type: in vivo, dogs; conditions: for half-life: oral
Protocol: In a 28-day repeat-dose toxicity study in dogs dosed orally daily with Compound 1 at 2, 6 and 18 mg/kg, high variability in Compound 1 exposure was generally observed for all dose levels on Days 1 and 28. Across the dose range evaluated, the mean % CV for Cmax and AUC0-24 was 46.2-93.2% and 45.5-91%, respectively, on Day 1 and 39.3-53.9% and 36.2-51.1%, respectively, on Day 28.

[6] = In vitro plasma protein binding; type: in vitro ADME; conditions: 0.2 and 1 μM
Protocol: as §2, §3

CYP2C9 = experiment: Cytochrome P450 induction (mRNA levels) in fresh primary human hepatocytes; type: in vitro ADME
[7] = Hepatocyte stability assay; type: in vitro ADME, dog; conditions: hepatocytes
Protocol: The mean plasma t1/2, z values were approximately 9 hours in rats and 4 hours in dogs. Interspecies scaling based on body weight to predict PK parameters in humans could not be performed because dogs (larger species) cleared Compound 1 faster than rats (smaller species). Therefore, the human PK was projected based on one species (rat). […] This apparent clearance value (CL/F) was used to predict steady-state exposure (AUC and average plasma concentration [Cavg]) in humans for the proposed first-in-human (FIH) starting dose for Study Compound 1-001.
as §1

MDA-MB-231 = experiment: Tumor growth inhibition in xenograft model; type: in vivo, NSG mice
Protocol: Three human tumor cell lines, NCI-H441, MDA-MB-231, and SNU-5, were selected for use in tumor xenograft studies using athymic nude, NSG and CB.17 SCID mice, respectively. Pharmacodynamic modulation of MET phosphorylation was also measured in the NCI-H441 and SNU-5 xenografts. Tumor-bearing mice were orally dosed once-daily for 14 days (qd×14), and the tumors were resected and processed for MET phosphorylation analysis by Western blot. […]

[8] = Day 28 vs Day 1, 1-10 mg/kg/day
[9] = 10 mg/kg/day, daily for 4 weeks, reversible

CNC(=O)c1cc2c(Oc3ccc(NC(=O)C4(C(=O)Nc5ccc(F)cc5)CC4)cc3)ccnc2cc1OC [Compound 1, 1-N′-(4-Fluorophenvl)-1-N-[4-[7-methoxy-6-(methylcarbamovl)quinolin-4-yl]oxyphenyl]cyclopropane-1,1-dicarboxamide]
Sex differences in mean Cmax and AUC values ([1]; 28-day study): less than 2 fold | steady-state exposure in rats relative to dogs ([1]; Day 28, dose-normalized AUC0-24, ss, higher in rats): approximately 20 fold | Accumulation ratio for AUC0-24 [1, 8]: 0.722-0.891 | Accumulation ratio for Cmax [1, 8]: 0.721-1.14 | half-life ([1]; both sexes, rat, plasma, Day 1): 3.51 to 3.7 h | half-life ([1]; both sexes, rat, plasma, Day 28): 6.7 to 8.97 h | Tmax ([1]; both sexes, rat, plasma, oral daily 1, 3 or 10 mg/kg, Days 1 and 28): 2 to 8 h | histopathologic changes in female reproductive tract tissues ([2]; 10 mg/kg/day for 4 weeks, appeared reversible): increased size and number of regressing corpora lutea in ovarian tissue and a higher frequency of dilated uteri | hepatobiliary histologic findings ([2]; 10 mg/kg/day, 4 weeks, minimal to mild severity, fully reversible after 14-day recovery): bile duct inflammation and hyperplasia, and individual hepatocyte necrosis | increase in ALT [2, 9]: < 5 fold | increase in AST [2, 9]: < 2 fold | reversibility of adverse findings ([2]; 14-day non-treatment recovery period): partially or completely reversible | highest non-severely toxic dose (HNSTD) ([2]; GLP 4-week toxicity study, highest dose tested): 10 mg/kg qd | ophthalmic findings ([2]; daily for 4 weeks): No adverse ophthalmic findings | histomorphologic findings in bone and teeth ([2]; daily for 4 weeks, >3 mg/kg/day, persisted but less severe after 2-week recovery): increased physeal thickness of the femur and degeneration of the tooth dentin and enamel | nasal turbinate histologic findings ([2]; recovery cohort, 10 mg/kg/day 4 weeks + 14-day non-treatment, females minimal-moderate, males slight-moderate): proliferation of nasal turbinate bone | bone marrow microscopic findings ([2]; repeat-dose): minimal severity decreased bone marrow cellularity | cholesterol and triglyceride levels ([2]; repeat-dose): Increased cholesterol and triglyceride levels | reticulocytes ([2]; repeat-dose): transient decreases in reticulocytes | spleen findings ([2]; repeat-dose): Extramedullary hematopoiesis (minimal) and increased lymphocytes (minimal-slight) | CLint [3]: 0.734 mL/min/g liver | protein bound ([4]; 10 μM): 97.2% | fraction unbound ([4]; monkey, plasma, 0.2 and 1 μM): < 0.01 | mean accumulation ratio for AUC0-24 ([5]; 18 mg/kg dose level): 0.874 | mean accumulation ratio for Cmax ([5]; 18 mg/kg dose level): 0.891 | mean accumulation ratio for AUC0-24 ([5]; 2 and 6 mg/kg dose levels): 1.57-3.38 | mean accumulation ratio for Cmax ([5]; 2 and 6 mg/kg dose levels): 1.67-4.75 | Sex differences in mean Cmax and AUC0-24 values ([5]; 28-day study): less than 2 fold | half-life ([5]; both sexes, dog, plasma, Day 1): 4.57 to 6.29 h | half-life ([5]; both sexes, dog, plasma, Day 28): 3.96 to 5.23 h | Tmax ([5]; both sexes, dog, plasma, oral gavage 2, 6 and 18 mg/kg, Days 1 and 28, read-out: median Tmax): 2 h | fraction unbound ([6]; dog): < 0.01 | fraction unbound ([6]; mouse): < 0.01 | fraction unbound ([6]; rat): < 0.01 | EC50 (CYP2C9; human, fresh primary human hepatocytes, mRNA induction, read-out: half-maximal effective concentration (EC50)): 1.71 µM | maximal induction effect (Emax) (CYP2C9; mRNA, 0.1-100 μM): 5 fold | CLint [7]: 1.08 mL/min/g liver | TGI (%) (MDA-MB-231; 3 mg/kg qd × 14 oral, p-value 0.0001): 73.6% | TGI (%) (MDA-MB-231; 10 mg/kg qd × 14 oral, p-value <0.0001): 78.6%
